Results from paper PMC11795529, “Simulation of Antral Conditions for Estimating Drug Apparent Equilibrium Solubility after a High-Calorie, High-Fat Meal” (Molecular Pharmaceutics, 2025).
In brackets after ≈: the same amount, converted by molar mass. Several values for one entry are separate records, joined by “and”; a condition that tells them apart may be missing. Equal entries are not always repeated. Where two headings read alike, the source gives them in different places.

Legend:
[1] = cited from earlier work
[2] = cited from earlier work; for Ketoconazole Concentration, Mean: three samples
[3] = Shake-flask apparent equilibrium solubility in pooled human antral aspirates (HGFfed) collected after a high-calorie, high-fat meal and water; type: physicochemical; settings: pooled antral (gastric) aspirates, fed state
[4] = design: method as in PMID 19644845; settings: cited from earlier work
[5] = Level III FeSSGF-V3HCl and HGFfed15 sample, 37 °C, shake-flask
[6] = Shake-flask apparent equilibrium solubility in biorelevant media (FeSSGF-V2, FEDGAS pH 3, FeSSGF-V3); type: physicochemical
Experimental: Biorelevant media were prepared on the day of the solubility measurements.
FEDGAS1/2 pH = 3 (Level II biorelevance[5]) was prepared as FEDGAS pH = 3 but with half the amount of FEDGASgel, i.e., by using 7.65 g of FEDGASgel/90 mL.
FEDGAS1/4 pH = 3 (Level II biorelevance[5]) was prepared as FEDGAS pH = 3 but with 1/4 of the amount of FEDGASgel, i.e., by using 3.825 g of FEDGASgel/90 mL.
FEDGASbuffer pH = 3 (Level I biorelevance[5]) was prepared by diluting FEDGAS buffer concentrate with distilled water, as indicated in Table 3.
In Level III FeSSGF-V3, the presence of proteins was simulated using Régilait Skimmed Milk Powder. The high-calorie, high-fat meal consists of up to about 1000 kcal and ≈15% of the total amount of calories is derived from proteins.[15],[16] If 1 g of protein corresponds to 4 kcal, then the meal contains up to about 37 g of proteins. Based on phenol red data, after a high-calorie, high-fat meal and a glass of water 30 min after initiation of meal intake, the impact of resting gastric contents/swallowed saliva/gastric secretions on the dilution of antral contents is substantial; however, dilution of contents occurs predominantly during meal administration.[8] Specifically, when 100 mg of phenol red was included in the meal, the mean phenol red concentration in the antrum fluctuated around 0.06 mg/mL for at least 3 h after initiation of meal administration.[6] It can, therefore, be assumed that the protein concentration in the antral region would be about 37 g × (0.06 mg/mL/100 mg) = 0.0222 g/mL ≈ 22 mg/mL. Since Régilait contains 36% w/w proteins, Régilait Skimmed Milk Powder 6.1% w/v in medium is equivalent to 2.196% (w/v) protein concentration, i.e., ≈ 22 mg/mL.

physchem = settings: for solubility thermodynamic at 4 h: human, pooled antral (gastric) aspirates, fed state, thermodynamic from solid; for solubility: simple aqueous solution

C#C[C@]1(O)CC[C@H]2[C@@H]3CCC4=Cc5oncc5C[C@]4(C)[C@H]3CC[C@@]21C [Danazol]
logP [1]: 4.53 | Danazol Concentration ([2]; Level II FeSSIF, 1st filtration, samples 1, 2, 3 in order): 26.61 µg/mL and 26.22 µg/mL and 26.44 µg/mL | Danazol Concentration ([2]; Level II FeSSIF, 2nd filtration, samples 1, 2, 3 in order): 26.34 µg/mL and 25.39 µg/mL and 25.44 µg/mL | adsorption on regenerated cellulose filter ([2]; Level II FeSSIF): negligible adsorption | % adsorbed ([2]; Level II FeSSIF, samples 1, 2, 3 in order): 1.04% and 3.18% and 3.78%

CC(=O)N1CCN(c2ccc(OCC3COC(Cn4ccnc4)(c4ccc(Cl)cc4Cl)O3)cc2)CC1 (stereo not drawn) [Ketoconazole]
intrinsic aqueous solubility [1]: ≈ 2 μg/mL | adsorption on regenerated cellulose filter ([2]; aqueous buffers pH 3.5 to 5): negligible adsorption | Ketoconazole Concentration, Mean ([2]; pH 3.5, 1st filtration): 2.8763 mg/mL | Ketoconazole Concentration, Mean ([2]; pH 3.5, 2nd filtration): 2.8250 mg/mL | % adsorbed ([2]; pH 3.5): 1.63% | Ketoconazole Concentration, Mean ([2]; pH 4.0, 1st filtration): 0.9297 mg/mL | Ketoconazole Concentration, Mean ([2]; pH 4.0, 2nd filtration): 0.9288 mg/mL | % adsorbed ([2]; pH 4.0): 0.23% | Ketoconazole Concentration, Mean ([2]; pH 5.0, 1st filtration): 0.0825 mg/mL | Ketoconazole Concentration, Mean ([2]; pH 5.0, 2nd filtration): 0.0775 mg/mL | % adsorbed ([2]; pH 5.0): 6.16% | solubility at 4 h ([3]; 37 °C, plasma or biological fluid, thermodynamic from solid, from the four mean values in HGFfed45, 75, 105, 135, read-out: grand mean apparent solubility in HGFfed): 2290 µg/mL (≈ 4.31 mM) | solubility thermodynamic at 4 h ([3]; HGFfed45, 75, 105, 135, 37 °C, 4 h, mean(SD), read-out: mean apparent equilibrium solubility in pooled aspirates, range over the four HGFfed samples): 770 to 3670 µg/mL (≈ 1.45 to 6.91 mM) | aqueous solubility at pHeq as share of measured apparent solubility (HGFfed45): 21% | aqueous solubility at pHeq as share of measured apparent solubility (HGFfed75): 22% | aqueous solubility at pHeq as share of measured apparent solubility (HGFfed105): 18% | aqueous solubility at pHeq as share of measured apparent solubility (HGFfed135): 18% | apparent solubility in human antral fluids ([4]; 30 min after 500 mL Ensure Plus, pHeq 5.7): 630 µg/mL | apparent solubility in human antral fluids ([4]; 60 min after 500 mL Ensure Plus, pHeq 5.1): 3150 µg/mL | apparent solubility in human antral fluids ([4]; 120 min after 500 mL Ensure Plus, pHeq 4.9): 4700 µg/mL | incubation time within which equilibrium is achieved [5]: ≤ 4 h | times higher than the point estimate of intragastric solubility ([6]; FEDGAS1/2 pH = 3 and FEDGAS1/4 pH = 3 vs 3 mg/mL): more than 1.6 times | times higher than the point estimate of intragastric solubility ([6]; FEDGAS pH = 3 vs 3 mg/mL): more than 2.5 times | percent higher than the point estimate for intragastric solubility ([6]; FEDGASbuffer pH 3 vs 3 mg/mL): 50% | percent lower than the point estimate for intragastric solubility ([6]; Level I FeSSGF-V2 vs 3 mg/mL): 30% | solubility thermodynamic at 4 h ([6]; Level I FeSSGF-V3acetates, pH 3, Level I FeSSGF-V3acetates, initial pH 3, pHeq 3.7): 3200 µg/mL (≈ 6.02 mM) | percent lower than the point estimate for intragastric solubility ([6]; Level II FeSSGF-V2 vs 3 mg/mL): more than 40% | solubility thermodynamic at 4 h ([6]; Level II FeSSGF-V3acetates, pH 3, Level II FeSSGF-V3acetates, initial pH 3, pHeq 3.7): 3450 µg/mL (≈ 6.49 mM) | solubility thermodynamic at 4 h ([6]; Level III FeSSGF-V3HCl, pH 3, Level III FeSSGF-V3HCl, initial pH 3, pHeq 3.8): 3730 µg/mL (≈ 7.02 mM) | percent higher than the estimated point solubility in antral contents ([6]; Level III FeSSGF-V3 prepared with hydrochloric acid): 24% | solubility thermodynamic at 4 h ([6]; biorelevant medium, 37 °C, pH 3, fassgf or other biorelevant, thermodynamic from solid, FEDGAS1/2 pH = 3 (Level II), mean(SD), n = 3): 5650 µg/mL (≈ 10.6 mM) | solubility thermodynamic at 4 h ([6]; biorelevant medium, 37 °C, pH 3, fassgf or other biorelevant, thermodynamic from solid, FEDGAS1/4 pH = 3 (Level II), mean(SD), n = 3): 5070 µg/mL (≈ 9.54 mM) | solubility thermodynamic at 4 h ([6]; biorelevant medium, 37 °C, pH 3, fassgf or other biorelevant, thermodynamic from solid, FEDGAS pH = 3 (Level II), mean(SD), n = 3): 7570 µg/mL (≈ 14.2 mM) | solubility thermodynamic at 4 h ([6]; biorelevant medium, 37 °C, pH 3, fassgf or other biorelevant, thermodynamic from solid, Level II FeSSGF-V2, pH 3, mean(SD), n = 3): 1640 µg/mL (≈ 3.08 mM) | solubility thermodynamic at 4 h ([6]; biorelevant medium, pH 3, FEDGASbuffer pH 3 (Level I), mean(SD), n = 3): 4600 µg/mL (≈ 8.66 mM) | solubility thermodynamic at 4 h ([6]; biorelevant medium, pH 3, Level I FeSSGF-V2, pH 3, mean(SD), n = 3): 2140 µg/mL (≈ 4.03 mM) | solubility thermodynamic (physchem; aqueous phase, pH 3.7): 1290 µg/mL (≈ 2.43 mM) | solubility thermodynamic at 4 h (physchem; pH 4, plasma or biological fluid): 3000 µg/mL (≈ 5.65 mM) | solubility thermodynamic at 4 h (physchem; pH 4.1, plasma or biological fluid): 2340 µg/mL (≈ 4.4 mM) | solubility thermodynamic at 4 h (physchem; pH 4.2, plasma or biological fluid): 1470 µg/mL (≈ 2.77 mM) | solubility thermodynamic at 4 h (physchem; pH 4.6, plasma or biological fluid): 610 µg/mL (≈ 1.15 mM) | solubility thermodynamic at 4 h (physchem; plasma or biological fluid): 1850 µg/mL (≈ 3.48 mM) | solubility (physchem; pH 4): 650 µg/mL (≈ 1.22 mM) | solubility (physchem; pH 4.1): 520 µg/mL (≈ 0.978 mM) | solubility (physchem; pH 4.2): 410 µg/mL (≈ 0.771 mM) | solubility (physchem; pH 4.6): 170 µg/mL (≈ 0.32 mM)
